{"source": "patent US11219625B2", "about": "“Inhibitors of N-linked glycosylation and methods using same” (YALE UNIVERSITY, priority 2015, dated 2022)", "key": {"[1]": {"system": "EGFR", "test": "Western blot of EGFR phosphorylation, PC9 cells", "format": "cell-based", "conditions": "PC9, 10 μM NGI-1, 1 day", "procedure": "FIGS. 4A-4H illustrate the finding that NGI-1 blocks RTK driven proliferation. FIG. 4A illustrates western blot analysis of EGFR phosphorylation (Y1173) and gel mobility in PC9 (EGFR-mutant) and A549 (k-ras mutant) NSCLC cells after 10 μM NGI-1 treatment for 24 h. […] Actin expression was used as a control for protein loading. FIG. 4B illustrates MTT assays results of PC9 following treatment with 10 μM NGI-1 or 1 μM tunicamycin for a total of 5 d. Relative proliferation id reported in fold increase from day 0. FIG. 4C illustrates MTT assays results of A549 following treatment with 10 μM NGI-1 or 1 μM tunicamycin for a total of 5 d. Relative proliferation id reported in fold increase from day 0. FIG. 4D illustrates protein phosphorylation profiles of PC9 cells analyzed by phospho-protein array to assess the response of PC9 to 10 μM NGI-1 for 24 h. FIG. 4E illustrates protein phosphorylation profiles of A549 cells analyzed by phospho-protein array to assess the response of A549 to 10 μM NGI-1 for 24 h. FIG. 4F illustrates western blot analysis of FGFR phosphorylation (Y653/654) and gel mobility for H1581 (TKI sensitive) and H2444 (TKI insensitive) NSCLC cell lines. […] FIG. 4G illustrates MTT assays for H1581 cells treated with 10 μM NGI-1 for 5 d. Asterisk (***) indicates a significant difference p<0.001 for MTT. FIG. 4H illustrates MTT assays for H2444 cells treated with 10 μM NGI-1 for 5 d. […]"}, "[2]": {"system": "H1581 cells", "test": "MTT proliferation assay, H1581", "format": "cell-based", "conditions": "H1581, 10 μM NGI-1, 5 d", "procedure": "FIGS. 4A-4H illustrate the finding that NGI-1 blocks RTK driven proliferation. FIG. 4A illustrates western blot analysis of EGFR phosphorylation (Y1173) and gel mobility in PC9 (EGFR-mutant) and A549 (k-ras mutant) NSCLC cells after 10 μM NGI-1 treatment for 24 h. […] Actin expression was used as a control for protein loading. FIG. 4B illustrates MTT assays results of PC9 following treatment with 10 μM NGI-1 or 1 μM tunicamycin for a total of 5 d. Relative proliferation id reported in fold increase from day 0. FIG. 4C illustrates MTT assays results of A549 following treatment with 10 μM NGI-1 or 1 μM tunicamycin for a total of 5 d. Relative proliferation id reported in fold increase from day 0. FIG. 4D illustrates protein phosphorylation profiles of PC9 cells analyzed by phospho-protein array to assess the response of PC9 to 10 μM NGI-1 for 24 h. FIG. 4E illustrates protein phosphorylation profiles of A549 cells analyzed by phospho-protein array to assess the response of A549 to 10 μM NGI-1 for 24 h. […]\nGrowth rates were determined by CellTiter 96 NonRadioactive Cell Proliferation Assay (Promega; Madison, Wis. USA) according to the manufacturer's directions. […] Cell numbers were estimated after 0, 3, and 5 days by adding MTT [(3-(4,5-Dimethylthiazol-2-yl)-2,5-diphenyltetrazolium bromide] reagent to the wells 4 hours before taking the spectrophotometric reading (absorbance at 570 nm)."}}}
{"smiles": "Cc1cnc(NC(=O)c2cc(S(=O)(=O)N(C)C)ccc2N2CCCC2)s1", "note": "[NGI-1, 5-(N,N-Dimethylsulfamoyl)-N-(5-methylthiazol-2-yl)-2-(pyrrolidin-1-yl)benzamide]", "values": [{"measurement": "EGFR phosphorylation", "setting": "[1]", "result": "blocked phosphorylation of KD mutant EGFR"}, {"measurement": "effect on proliferation, MTT", "setting": "[2]", "result": "blocked proliferation of the H1581 cell line"}]}
